Values of other authors as cited in patent US20250009631A1, “METHOD OF NAIL STRENGTHENING WITH A COMPLEX MICHAEL ADDITION TREATMENT COMPOSITION” (Wella Operations US, LLC, priority 2023, published 2025).
Read-outs that look alike come from different tables or passages of the source.

Conditions: nail plate

For `c1ccncc1` [pyridine], which permeability coefficient (pH 2) is on record?
Its permeability coefficient is “at least some permeation”.

And the permeability coefficient (pH 7.4)?
The permeability coefficient was “high permeation coefficient”.
